From patent publication US10654834B2 (Venenum Biodesign, LLC, priority 2016, dated 2020)

Experiments:
[1] = target: T1, mouse TGR5 receptor (Mus musculus, UniProt Q80SS6); experiment: Mouse TGR5 HTRF cAMP production assay (HEK293-EBNA cells, Cisbio cAMP HiRange kit); format: cell-based; details: HEK293-EBNA cells overexpressing mouse TGR5, HTRF cAMP assay
T1 construct: host or cells: HEK293-EBNA (293 c18, ATCC CRL10852)
T1 sequence (Q80SS6 1-329): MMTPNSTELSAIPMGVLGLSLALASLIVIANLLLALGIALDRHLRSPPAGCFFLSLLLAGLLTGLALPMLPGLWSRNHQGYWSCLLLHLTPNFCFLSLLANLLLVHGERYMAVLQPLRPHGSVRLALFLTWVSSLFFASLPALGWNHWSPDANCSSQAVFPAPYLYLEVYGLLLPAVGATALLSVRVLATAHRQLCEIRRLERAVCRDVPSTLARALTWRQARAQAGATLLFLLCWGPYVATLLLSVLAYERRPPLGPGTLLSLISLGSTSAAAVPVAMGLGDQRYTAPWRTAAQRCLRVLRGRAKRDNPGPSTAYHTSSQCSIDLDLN
How it was run: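 cAMP accumulation was read by competitive HTRF after 1 h room-temperature compound treatment, with a further 1 h conjugate incubation. Cells were mouse TGR5-overexpressing HEK293-EBNA in serum-free DMEM plus 500 μM IBMX. Compounds ran as 12-point half-log series in duplicate, and EC50 values were reported.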

[2] = target: T2, human TGR5 receptor (Homo sapiens, UniProt Q8TDU6); experiment: Human TGR5 cAMP production assay (hTGR5-CHO cells, DiscoveRx cAMP XS+ kit); format: cell-based; details: luminescent cAMP assay, read-out: Human TGR5 Lum. cAMP Activity (EC50)
T2 construct: host or cells: CHO-K1 (hTGR5-CHO)
T2 sequence (Q8TDU6 1-330): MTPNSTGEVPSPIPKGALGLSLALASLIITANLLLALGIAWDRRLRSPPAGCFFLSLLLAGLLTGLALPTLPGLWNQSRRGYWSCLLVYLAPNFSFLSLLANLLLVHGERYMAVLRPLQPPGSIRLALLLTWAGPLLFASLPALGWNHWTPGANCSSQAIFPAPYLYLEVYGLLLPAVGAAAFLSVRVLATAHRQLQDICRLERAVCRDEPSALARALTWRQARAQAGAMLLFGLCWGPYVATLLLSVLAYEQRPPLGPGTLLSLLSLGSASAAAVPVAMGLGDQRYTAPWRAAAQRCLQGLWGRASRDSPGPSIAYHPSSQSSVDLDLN
How it was run: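 EC50 values come from luminescent enzyme-complementation cAMP detection, read after overnight incubation. Beforehand, hTGR5-expressing CHO-K1 cells with IBMX and anti-cAMP antibody were exposed 1 h at room temperature to serially diluted (half-log) compounds.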

Compound | EC50 [1] [nM] | EC50 [2] [nM]
N#Cc1ccc(CCNC(=O)[C@@H]2CCN2c2cc(N3CCC(CCNC(=O)NCCOCCNC(=O)NCCC(=O)O)CC3)nc(C(F)(F)F)n2)cc1 [Compound 360, (S)-1-(1-(6-(2-((4-cyanophenethyl)carbamoyl)azetidin-1-yl)-2-(trifluoromethyl)pyrimidin-4-yl)piperidin-4-yl)-4,12-dioxo-8-oxa-3,5,11,13-tetraazahexadecan-16-oic acid] | < 100 | < 100
N#Cc1ccc(CCNC(=O)[C@@H]2CCCN2c2cc(N3CCC(CCCNC(=O)NCC(=O)O)CC3)nc(C(F)(F)F)n2)cc1 [Compound 121, (S)-2-(3-(3-(1-(6-(2-((4-cyanophenethyl)carbamoyl)pyrrolidin-1-yl)-2-(trifluoromethyl)pyrimidin-4-yl)piperidin-4-yl)propyl)ureido)acetic acid] | < 100 | 100 to 999
N#Cc1ccc(CCNC(=O)[C@@H]2CCN2c2cc(N3CCC(CCNC(=O)NCCC(=O)O)CC3)nc(C(F)(F)F)n2)cc1 [Compound 268, (S)-3-(3-(2-(1-(6-(2-((4-cyanophenethyl)carbamoyl)azetidin-1-yl)-2-(trifluoromethyl)pyrimidin-4-yl)piperidin-4-yl)ethyl)ureido)propanoic acid] | < 100 | < 100
N#Cc1ccc(CCNC(=O)[C@@H]2CCN2c2cc(N3CCC(CCNC(=O)NCCS(=O)(=O)O)CC3)nc(C(F)(F)F)n2)cc1 [Compound 271, (S)-2-(3-(2-(1-(6-(2-((4-cyanophenethyl)carbamoyl)azetidin-1-yl)-2-(trifluoromethyl)pyrimidin-4-yl)piperidin-4-yl)ethyl)ureido)-ethanesulfonic acid] | < 100 | < 100
N#Cc1ccc(CCNC(=O)[C@@H]2CCCN2c2cc(N3CCC(CCCC(=O)O)CC3)nc(C(F)(F)F)n2)cc1 [Compound 29] | < 100 | < 100
N#Cc1ccc(CCNC(=O)[C@@H]2CCN2c2cc(N3CCC(CCCC(=O)NCCOCCNC(=N)N)CC3)nc(C(F)(F)F)n2)cc1 [Compound 284, (S)-N-(4-cyanophenethyl)-1-(6-(4-(4-((2-(2-guanidinoethoxy)-ethyl)amino)-4-oxobutyl)piperidin-1-yl)-2-(trifluoromethyl)pyrimidin-4-yl)azetidine-2-carboxamide] | < 100 | < 100
N#Cc1ccc(CCNC(=O)[C@@H]2CCN2c2cc(N3CCC(CCCC(=O)NCCCCNC(=N)N)CC3)nc(C(F)(F)F)n2)cc1 [Compound 283, (S)-N-(4-cyanophenethyl)-1-(6-(4-(4-((4-guanidinobutyl)amino)-4-oxobutyl)piperidin-1-yl)-2-(trifluoromethyl)pyrimidin-4-yl)azetidine-2-carboxamide] | < 100 | < 100
N#Cc1ccc(CCNC(=O)[C@@H]2CCCN(c3cc(N4CCC(CCNC(=O)NCCC(=O)O)CC4)nc(C(F)(F)F)n3)C2)cc1 [Compound 347, (R)-3-(3-(2-(1-(6-(3-((4-cyanophenethyl)carbamoyl)piperidin-1-yl)-2-(trifluoromethyl)pyrimidin-4-yl)piperidin-4-yl)ethyl)ureido)propanoic acid] | < 100 | < 100
CN(C)CCC1CCN(c2cc(N3CCC[C@H]3C(=O)NCCc3ccc(C(F)(F)F)cc3)nc(C(F)(F)F)n2)CC1 [Compound 5] | < 100 | < 100
O=C(CCCC1CCN(c2cc(N3CCC[C@H]3C(=O)NCCc3ccc(C(F)(F)F)cc3)nc(C(F)(F)F)n2)CC1)NCCCS(=O)(=O)O [Compound 60, (S)-3-(4-(1-(2-(trifluoromethyl)-6-(2-((4-(trifluoromethyl)phenethyl)carbamoyl)pyrrolidin-1-yl)pyrimidin-4-yl)piperidin-4-yl)butanamido)propane-1-sulfonic acid] | < 100 | < 100
